{"source": "patent US20250051694A1", "about": "“BAR COMPOSITION HAVING ENHANCED ANTIMICROBIAL ACTIVITY” (Conopco, Inc., d/b/a UNILEVER, priority 2021, published 2025)", "test_system": "S. aureus ATCC 6538", "assay": "Time-kill assay (adapted from ASTM E2315-16), Gram positive", "type": "cell-based", "details": "Table II, simulated 10% slurry", "procedure": "Aqueous slurries were prepared whereby gratings from the bars made in the Samples of Table I were mixed with water to form a test solution containing 10% by weight of the initial bar component. In the second method, raw bar components, as depicted in the Samples in Table II, were mixed with water to form a test solution containing a total of 10% raw bar component to simulate an aqueous slurry of a bar composition. For each sample, aqueous slurries were mixed at 50° C. to simulate customary consumer washing conditions.\nAs to the microbes, E. coli ATCC 10536 and S. aureus ATCC 6538 were used in this study to represent Gram negative and Gram positive bacteria, respectively. The bacteria were stored at −80° C. Fresh isolates were cultured twice on Tryptic Soy Agar plates for 24 hours at 37° C. before each experiment.\nTest solutions were prepared. In the first method and for the aqueous slurries made from the bar compositions described in Table I, a composition (typically containing up to 15% surfactant) was mixed with water to form a test solution containing 10% weight percent of the initial formulation. In the second method and for the raw ingredients combined in Table II, the same were mixed with water at levels that simulate a 10% dilution of the slurries. In each assessment, test solutions were heated and mixed at […]\nThe log reduction was calculated using the formula: […]", "data": [{"smiles": "CC(O)C(=O)O", "note": "(stereo not shown) [lactic acid]", "values": [{"measurement": "S. aureus Log Reduction (46° C., 30 sec)", "result": "performed poorly"}]}]}
